Test [1] is described as follows: Luminescence Cell-Based Dose Response HTS to Identify Activators of Luciferase Translation or Activity in H4 […] Cells. [Related pubchem assays: 1829 (Project Summary), 1814 (Primary HTS)]. It counts as functional.
Test [2] can be described thus: Luminescence Cell-Based Dose Confirmation HTS to Identify Activators of 5'UTR Stem-Loop Driven Alpha-Synuclein mRNA Translation in H4 Neuroglioblastoma Cells. [Related pubchem assays: 1829 (Project Summary), 1814 (Primary HTS)]. It counts as functional.
A further test deals with H4. As to the kind of experiment: Luminescence Cell-Based Dose Response HTS to Identify Activators of 5'UTR Stem-Loop Driven Prion Protein mRNA Translation in H4 Neuroglioblastoma Cells. [Related pubchem assays: 1829 (Project Summary), 1814 (Primary HTS)]. The format is functional. The conditions noted are these: Homo sapiens.
Test [3] concerns the target T1, Heat shock factor protein 1 (Mus musculus, UniProt P38532).
T1 sequence (P38532 whole entry): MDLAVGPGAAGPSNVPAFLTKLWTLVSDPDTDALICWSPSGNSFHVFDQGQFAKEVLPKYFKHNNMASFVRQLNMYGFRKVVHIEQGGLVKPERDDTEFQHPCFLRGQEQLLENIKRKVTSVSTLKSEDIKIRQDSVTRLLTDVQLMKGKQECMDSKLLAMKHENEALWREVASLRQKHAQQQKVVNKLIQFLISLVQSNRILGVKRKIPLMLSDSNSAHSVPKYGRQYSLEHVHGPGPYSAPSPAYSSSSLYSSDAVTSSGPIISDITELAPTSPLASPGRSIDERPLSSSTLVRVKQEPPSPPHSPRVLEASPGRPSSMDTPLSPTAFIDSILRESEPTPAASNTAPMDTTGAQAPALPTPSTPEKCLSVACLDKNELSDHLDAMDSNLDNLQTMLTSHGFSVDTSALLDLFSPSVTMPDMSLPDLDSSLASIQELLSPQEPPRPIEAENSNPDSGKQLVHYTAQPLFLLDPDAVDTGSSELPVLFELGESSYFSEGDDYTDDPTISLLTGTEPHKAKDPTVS
As to the kind of experiment: inhibition of MG132-induced HSE-luciferase signal, confirmation, cell-based, NIH3T3, luminescence, dose retest (AID 2382).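 Note: NIH3T3 fibroblasts with HSF1-driven luciferase reporter stressed by proteasome inhibitor MG132; luminescence from HSF1-driven luciferase expression after 8 hours of MG132 stress.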 The format is functional.

Another test deals with T2, Streptokinase A (Streptococcus pyogenes serotype M1, UniProt P10520).
T2 sequence (P10520 whole entry): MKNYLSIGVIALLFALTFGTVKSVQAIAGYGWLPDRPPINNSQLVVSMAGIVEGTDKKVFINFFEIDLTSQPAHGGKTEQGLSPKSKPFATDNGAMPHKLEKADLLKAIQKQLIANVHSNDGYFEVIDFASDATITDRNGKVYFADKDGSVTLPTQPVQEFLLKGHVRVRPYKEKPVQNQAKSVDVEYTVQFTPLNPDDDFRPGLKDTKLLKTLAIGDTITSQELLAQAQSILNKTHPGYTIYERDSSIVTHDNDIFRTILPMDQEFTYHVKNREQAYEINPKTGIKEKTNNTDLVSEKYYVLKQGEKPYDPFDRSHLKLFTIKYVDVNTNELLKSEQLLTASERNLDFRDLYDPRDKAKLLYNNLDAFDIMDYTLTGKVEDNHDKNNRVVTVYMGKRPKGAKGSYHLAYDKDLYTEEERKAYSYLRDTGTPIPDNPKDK
Nature of the test: S. pyogenes streptokinase expression inhibitors, potency, dose response, plasminogen activation absorbance, OD405 (AID 1914).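 Note: secreted streptokinase activity via plasminogen activation per viability signal from cell pellet.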 The format is functional, Streptococcus pyogenes M1 GAS.

For the next test, the system named is Streptococcus. As to the kind of experiment: Group A Streptococcus viability loss, dose response, counter-screen for streptokinase expression inhibitor project, luminescence, BacTiterGlo (AID 1915).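 Note: potency for reduction of bacterial viability or growth.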 The format is functional, organism-based.
Test [4] has as its system Streptococcus sp. 'group A'. Nature of the test: growth inhibition of control SK(-) GAS strain, dose response, counter-screen for streptokinase expression inhibitor project, luminescence, kanamycin, BacTiterGlo, confirmation (AID 1900). It counts as functional, organism-based.
The nature of test [5]: NIH-3T3 fibroblast cytotoxicity, dose response, cytotoxicity control, cell-based, fluorescence, Alamar Blue, secondary assay (AID 2327).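 Note: NIH-3T3 mouse fibroblasts cultured with fluconazole at 8 µg/mL.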 It counts as functional.
Test [6] is described as follows: C. albicans growth with fluconazole, confirmation, fluorescence, retest (AID 2467). The format is functional, cell-based.
The nature of another test: cells. The format is functional.
For test [7], the target named is FAD-linked sulfhydryl oxidase ALR (Homo sapiens, UniProt P55789). Nature of the test: inhibitors of human ALR sulfhydryl oxidase, dose response, biochemical, H2O2 detection, luminescence, cherry-pick (AID 493248).
Test [8] in a line: inhibitors of intracellular T. cruzi replication, confirmation, NIH3T3 host cells, beta-gal luminescence (AID 2044).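 Note: intracellular parasites grown in NIH/3T3 mouse fibroblasts as host cells; luminescent beta-galactosidase reporter signal from transgenic T. cruzi replicating inside host cells; inhibitors lower the luminescence signal.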 The format is functional, cell-based.
Test [9] is described as follows: cytotoxicity toward NIH3T3 fibroblasts, dose response, counter-screen, cell-based, ATP luminescence, mouse fibroblasts (AID 2010).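 Note: cells exposed to compound for about 90 hours before reading.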 The format is functional. Background: Counterscreens check selectivity or assay interference.
Test [10] is described as follows: Luminescence Cell-Based Dose Retest to Confirm Inhibitors of Cancer Stem Cells. [Related pubchem assays (depositor defined):AID2717, AID2721]. The format is functional. Particulars: Homo sapiens.

Each structure is given as a SMILES string. Active and inactive are the calls of the source. Cut-off read from the data, not from the text of the source, for most assays here: actives have a measured EC50 and inactives only a lower limit. Some results are limits rather than exact numbers.

FAD-linked sulfhydryl oxidase ALR, sequence (P55789 whole entry): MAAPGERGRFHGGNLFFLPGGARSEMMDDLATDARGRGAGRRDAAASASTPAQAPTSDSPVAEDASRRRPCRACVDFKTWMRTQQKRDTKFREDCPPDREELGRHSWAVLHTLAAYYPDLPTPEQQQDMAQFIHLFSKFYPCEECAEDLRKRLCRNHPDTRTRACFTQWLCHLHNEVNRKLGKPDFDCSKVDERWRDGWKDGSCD

Take `c1ccc2c(c1)CCN(c1nc3ccccc3n3cnnc13)C2`: the values for the EC50 (in [1]; in test [2]; in the test with H4) were 26.4 µM (active), 0.123 µM (active) and 29.1 µM (active), respectively.
Turning to `CCOC(=O)c1ccc(Nc2ncccc2[N+](=O)[O-])cc1`, the 50% effective concentration (EC50) in test [1] is 1.82 µM (active); in test [2], 0.12 µM (active); in the test on H4, 0.801 µM (active).
As for `CCOCCCNC(=O)c1cc(C)nn1-c1ccccc1`, the EC50 in test [3] is on record as > 195 µM (not active).
For `CCCCNC(=O)C1CCN(Cc2ccc(OCc3ccccc3)cc2)CC1`, the concentration giving a half-maximal response (EC50) in test [1] was 70.9 µM (active); in test [2] it was 18.6 µM (active); in the test with H4 it was 63.1 µM (active).
With `COc1ccc(C(=O)Nc2cccc(-c3ccc(N4CCOCC4)nn3)c2)cc1`, the EC50 (at Streptokinase A; with Streptococcus; in [4]) was > 150 µM (not active) in each case.
For the compound `CCCCn1c(N)nc2ccccc21`, the EC50 in test [3] is recorded as > 195 µM (not active).
Consider `Cc1occc1C(=O)Nc1nnc(C(F)(F)F)s1`, for which the values for the EC50 in test [5] and in test [6] were > 150 µM (inconclusive) and 1.95 µM (active), respectively.
Regarding `O=C(CCCc1c[nH]c2ccccc12)N1CCCCCC1`, the concentration giving a half-maximal response (EC50) in test [1] was 7.67 µM (active); in test [2] it was 8.16 µM (active); with H4, 34.2 µM (active).
`NC(=O)c1ccsc1NC(=O)CCS(=O)(=O)c1ccccc1`: the EC50 in test [5] is > 150 µM (inactive); in [6], > 38 µM (not active).
As to `COc1ccc(OC(=O)c2cc3cc(Cl)ccc3oc2=O)cc1`, the concentration for half-maximal inhibition (IC50) in the test “cells” is 7.33 µM (active).
Consider `CCOc1ccc(N(CC(=O)NC2CCCCC2)C(=O)CCC(=O)Nc2nc(C)cs2)cc1`, for which, in test [3], the half-maximal effective concentration (EC50) was > 195 µM (not active).
As to `O=C(NC1CCCCC1)C(c1ccc2ncccc2c1)N(Cc1ccc(F)cc1)C(=O)c1ccc2c(c1)OCCO2` (centres undefined), the 50% effective concentration (EC50) in test [5] is > 150 µM (inconclusive); in test [6], > 38 µM (not active).
In the case of `Cc1cc(C(=O)CSc2nnc(-c3cccnc3)n2-c2ccccc2)c(C)n1CC1CCCO1` (centres undefined), the EC50 in [1] was 18.7 µM (active); in [2], 8.04 µM (active); in the test on H4, > 60 µM (not active).
`CCOc1ccccc1N1CCN(CC(O)COC2CCCc3ccccc32)CC1` (centres undefined): the EC50 in [5] is > 160 µM (inactive); in test [6], 1.02 µM (active).
With `Cc1ccc(-c2nn(-c3ccccc3)cc2/C=C2\SC(=S)N(CCCCCC(=O)O)C2=O)o1`, the results for the EC50 (in test [1]; in test [2]; in the test with H4) were 16 µM (active), 12.6 µM (active) and 13.9 µM (active), respectively.
`CCN(CCNC(=O)c1cccc(N2CCCC2=O)c1)c1ccccc1`: the AC50 in test [7] was 0.508 µM (active).
`CCOC(=O)C1(Cc2cccc(OC)c2)CCCN(C(=O)CCN2CCCO2)C1` (centres undefined): the EC50 in [1] was 9.65 µM (active); in test [2], 11.1 µM (active); in the test on H4, 2 µM (active).
For the compound `CCNc1nc(NCC)nc(N/N=C/c2ccc(N(C)C)cc2)n1`, the AC50 in test [7] is 2.33 µM (active).
With `COc1cccc(NC(=O)C(=O)N2CCOCC2)c1`, the figures for the half-maximal effective concentration (EC50) (in test [1]; in test [2]; with H4) were 78.3 µM (active), 4.35 µM (active) and 24.3 µM (active), respectively.
With `COc1ccccc1-c1c[nH]nc1-c1ccc(OCc2ccc(F)cc2)cc1O`, the results for the concentration for a half-maximal effect (EC50) (on Streptokinase A; with Streptococcus; in test [4]) were 76.6 µM (active), 24.5 µM (active) and 7.62 µM (active), respectively.
Regarding `CCC1(C)Cc2ccccc2-c2c1c(=O)n(Cc1ccccc1)c1nnnn21` (centres undefined), the EC50 on Streptokinase A was 4.04 µM (active); in the test with Streptococcus it was > 150 µM (not active).
Take `COc1cc(-c2csc(CCn3nc(C)cc3C)n2)cc(OC)c1OC`: the AC50 in [7] is 0.059 µM (active).
As for `CCc1noc(C)c1C(=O)Nc1cc(Cl)ccc1N1CCCC1`, in test [7], the half-maximal activity concentration (AC50) is 1.15 µM (active).
As to `CC1CC(N(C(=O)c2ccco2)c2ccccc2)c2ccccc2N1` (centres undefined), the AC50 in [7] is 0.465 µM (active).
For the compound `CCOC(=O)c1nnn(CC(=O)NC(=O)Nc2ccc(F)cc2)c1C(=O)OCC`, the EC50 in [3] is given as > 195 µM (not active).
`Cc1ccc(-n2c(-c3ccc(Cl)cc3)n[nH]c2=S)c(C)c1`: the concentration at half-maximal activity (AC50) in test [7] was 2.08 µM (active).
Take `CCOc1ccc(C(=O)Nc2nnc(C3=COCCO3)o2)cc1`: the IC50 in the test “cells” is 3.65 µM (active).
`Cc1ccc(S(=O)(=O)N(C)CC(=O)N2CC(C)OC(C)C2)cc1` (centres undefined): the concentration giving a half-maximal response (EC50) (on Streptokinase A; in the test with Streptococcus; in test [4]) was > 150 µM (not active) each time.
Take `CC(=O)NCCc1c(C)n(Cc2ccccc2)c2ccccc12`: the AC50 in [7] was 3.02 µM (active).
Take `N#Cc1ccc(-c2nc3cc(Cl)ccc3c(=O)n2O)cc1`: the figures for the 50% effective concentration (EC50) in [5] and in [6] were > 160 µM (inconclusive) and 1.63 µM (active), respectively.
As to `O=C(NC(=S)Nc1ccc(Cl)cn1)C(c1ccccc1)c1ccccc1`, the EC50 at Streptokinase A was > 150 µM (not active); with Streptococcus it was 6.57 µM (active); in [4] it was 3.85 µM (active).
With `O=C(CCN1CCOCC1)c1ccc(Cl)cc1`, the IC50 in the test “cells” is 22.5 µM (active). For the same compound, the values for the concentration for a half-maximal effect (EC50) in test [8] and in test [9] were 1.74 µM (active) and > 60 µM (not active), respectively.
In the case of `CCc1ccc(/C=C2\Oc3cc(OC(=O)N4CCOCC4)ccc3C2=O)cc1`, the EC50 in test [3] is reported as > 195 µM (not active).
Regarding `O=C(N/N=C/c1cccc(O)c1)N/N=C/c1cccc(O)c1`, the AC50 in test [7] was 0.797 µM (active).
On the same count and under the same terms, with `COc1ccc(/C=N/NC(=O)c2cc[nH]n2)cc1CSc1ccccn1` the figure was 0.68 µM (active).
In the case of `CCOc1ccc2ccccc2c1CNc1nnnn1CC`, the 50% effective concentration (EC50) in test [3] is listed as > 195 µM (not active).
In the case of `O=C(Nc1ccc(-c2csc(Nc3ccc(Cl)cc3)n2)cc1)c1cc([N+](=O)[O-])cc(C(F)(F)F)c1`, the figures for the EC50 (at Streptokinase A; in the test with Streptococcus; in test [4]) were > 150 µM (not active), 7.28 µM (active) and 8.5 µM (active), respectively. For the same compound, in test [10], the half-maximal activity concentration (AC50) was 1.32 µM (active).
With `COc1ccc(NC(=O)c2cc3cccc(OC)c3o/c2=N\c2ccc(C(=O)O)cc2)cc1OC`, the EC50 at Streptokinase A is > 150 µM (not active); with Streptococcus, 20.2 µM (active); in test [4], 2.38 µM (active).
In the case of `Cc1ccc(Oc2cc(C)nc(-c3ccccc3O)n2)cc1`, the 50% effective concentration (EC50) was 15 µM (active) in test [1], 12.9 µM (active) in [2] and 44 µM (inconclusive) in the test with H4.
Consider `COc1ccc(/C=C/C(=O)NC(=S)NNC(=O)c2cc(OC)c(OC)c(OC)c2)cc1OC`, for which the EC50 on Streptokinase A is > 150 µM (not active); in the test on Streptococcus, 17.8 µM (active); in test [4], 3.3 µM (active).
For the compound `Cc1ccc(NC(NC(=O)c2ccccn2)C(Cl)(Cl)Cl)cc1` (centres undefined), the half-maximal activity concentration (AC50) in test [7] was 0.731 µM (active).
With `O=C(c1ccccc1)N1CCN(c2ncnc3c(-c4ccccc4)nsc23)CC1`, the EC50 in [1] is > 120 µM (not active); in test [2], 33.1 µM (active); with H4, 17 µM (active).
With `Nc1nn2cc(-c3ccc(Br)cc3)nc2c2ccccc12`, the half-maximal effective concentration (EC50) was 109 µM (active) in test [5], 0.177 µM (active) in [1], 1.24 µM (active) in test [6] and 2.38 µM (active) with H4.

One may read the EC50 as the concentration giving half of the maximal effect. The term IC50 denotes the concentration needed to halve the response being measured. By AC50 is commonly meant the midpoint of the concentration-response curve, whichever way the signal moves.

Source of the values: ChEMBL document CHEMBL1201862, “PubChem BioAssay data set” (2004).
